Assay results reported in US12433913B2, “Treatment of acute respiratory disease syndrome (ARDS) with polysulfated polysaccharides” (Paradigm Biopharmaceuticals Ltd., priority 2020, dated 2025).
Where “and” joins values, the source holds several entries; their conditions need not be identical. Equal entries are not always repeated. Where two headings read alike, the source gives them in different places.

Legend:
alphavirus = conditions: within 3 to 10 days post PPS treatment in infected animals; cited from earlier work
allergen induced asthma = conditions: intra-tracheal PPS; cited from earlier work
[1] = biological target: T1, human leukocyte elastase (human neutrophil elastase) (Homo sapiens, UniProt P08246); conditions: cited from earlier work
T1 sequence (P08246 30-267): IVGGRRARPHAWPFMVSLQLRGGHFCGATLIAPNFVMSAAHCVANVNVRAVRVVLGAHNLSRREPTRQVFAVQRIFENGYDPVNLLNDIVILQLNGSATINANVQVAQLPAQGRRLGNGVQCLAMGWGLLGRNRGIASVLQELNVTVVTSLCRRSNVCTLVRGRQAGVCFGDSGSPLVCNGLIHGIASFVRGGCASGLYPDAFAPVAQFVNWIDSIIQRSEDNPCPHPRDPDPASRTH

SARS-CoV-2 [2] = assay type: cell-based, Vero (Africa Green Monkey kidney epithelium); conditions: for PFU/well: replicates
SARS-CoV-2 [3] = assay type: cell-based, Vero (Africa Green Monkey kidney epithelium); conditions: for PFU/well: replicates; remark: listed apart in the source
SARS-CoV-2 [4] = assay type: cell-based, Vero (Africa Green Monkey kidney epithelium); conditions: for PFU/well: replicates; remark: listed apart in the source
IL-8, MCP-1 and MIP-1a = conditions: cited from earlier work
[5] = system: H1N1 PR-8 influenza strain; experiment: Influenza virus-induced ARDS mouse model (Study 1); assay type: in vivo, C57BL/6J mice
[6] = 2 mg/kg twice weekly subcutaneously; cited from earlier work

pentosan polysulfate [PPS]
Cytokine response (IL-1a; IL-2, IL-6, MIP1a and CCL2) (alphavirus): reduction
Airway hyper-reactivity (allergen induced asthma): inhibited
Lung compliance (allergen induced asthma): increased
Total number of infiltrating leukocytes and neutrophils in the bronchoalveolar fluid (allergen induced asthma): significantly reduced
Total protein content in the bronchoalveolar fluid (allergen induced asthma): significantly reduced
Activity on human leukocyte elastase [1]: antagonist
PFU/well (SARS-CoV-2 [2]; PPS 12.5 μg/ml incubated with virus inoculum 30 min prior to addition to Vero cells): 31 PFU/well and 33 PFU/well and 39 PFU/well and 34 PFU/well and 42 PFU/well and 38 PFU/well and 40 PFU/well and 37 PFU/well
PFU/well (SARS-CoV-2 [2]; PPS 25 μg/ml incubated with virus inoculum 30 min prior to addition to Vero cells): 25 PFU/well and 28 PFU/well (2×) and 31 PFU/well (2×) and 34 PFU/well and 33 PFU/well and 35 PFU/well
PFU/well (SARS-CoV-2 [2]; PPS 50 μg/ml incubated with virus inoculum 30 min prior to addition to Vero cells): 24 PFU/well and 21 PFU/well and 28 PFU/well and 31 PFU/well and 32 PFU/well and 30 PFU/well and 29 PFU/well and 26 PFU/well
PFU/well (SARS-CoV-2 [2]; PPS 100 μg/ml incubated with virus inoculum 30 min prior to addition to Vero cells): 19 PFU/well and 17 PFU/well and 23 PFU/well and 26 PFU/well and 22 PFU/well (2×) and 25 PFU/well and 27 PFU/well
PFU/well (SARS-CoV-2 [2]; PPS 200 μg/ml incubated with virus inoculum 30 min prior to addition to Vero cells): 16 PFU/well and 12 PFU/well and 20 PFU/well (2×) and 22 PFU/well and 21 PFU/well and 23 PFU/well and 24 PFU/well
Maximum inhibition of plaque formation (SARS-CoV-2 [2]; top dose of 200 μg/ml, virus treated 30 min prior to infection): 56%
PFU/well (SARS-CoV-2 [3]; PPS 12.5 μg/ml incubated with both virus and cells 30 min prior to infection): 18 PFU/well and 19 PFU/well and 17 PFU/well and 22 PFU/well and 20 PFU/well (2×) and 25 PFU/well and 26 PFU/well
PFU/well (SARS-CoV-2 [3]; PPS 25 μg/ml incubated with both virus and cells 30 min prior to infection): 18 PFU/well and 15 PFU/well (2×) and 20 PFU/well and 21 PFU/well and 19 PFU/well and 22 PFU/well and 17 PFU/well
PFU/well (SARS-CoV-2 [3]; PPS 50 μg/ml incubated with both virus and cells 30 min prior to infection): 12 PFU/well and 14 PFU/well (2×) and 15 PFU/well and 13 PFU/well and 18 PFU/well (2×) and 16 PFU/well
PFU/well (SARS-CoV-2 [3]; PPS 100 μg/ml incubated with both virus and cells 30 min prior to infection): 8 PFU/well and 12 PFU/well and 11 PFU/well and 7 PFU/well and 13 PFU/well and 10 PFU/well and 16 PFU/well and 9 PFU/well
PFU/well (SARS-CoV-2 [3]; PPS 200 μg/ml incubated with both virus and cells 30 min prior to infection): 6 PFU/well and 12 PFU/well and 10 PFU/well (2×) and 8 PFU/well and 11 PFU/well and 14 PFU/well and 13 PFU/well
Maximum inhibition of plaque formation (SARS-CoV-2 [3]; top dose of 200 μg/ml, virus and cells treated 30 min prior to infection): 77%
PFU/well (SARS-CoV-2 [4]; PPS 12.5 μg/ml on Vero cells 30 min prior to infection with 50 PFU): 35 PFU/well and 33 PFU/well and 34 PFU/well and 40 PFU/well and 41 PFU/well and 39 PFU/well and 36 PFU/well and 37 PFU/well
PFU/well (SARS-CoV-2 [4]; PPS 25 μg/ml on Vero cells 30 min prior to infection with 50 PFU): 29 PFU/well and 31 PFU/well and 27 PFU/well and 25 PFU/well
PFU/well (SARS-CoV-2 [4]; PPS 200 μg/ml on Vero cells 30 min prior to infection with 50 PFU): 18 PFU/well (2×) and 16 PFU/well (2×) and 20 PFU/well and 21 PFU/well and 17 PFU/well and 19 PFU/well
Maximum inhibition of plaque formation (SARS-CoV-2 [4]; top dose of 200 μg/ml, cells treated 30 min prior to infection): 60%
Cell movement induced by IL-8, MCP-1 and MIP-1a (IL-8, MCP-1 and MIP-1a): inhibits cell movement
Number of nuclei/mm^2 in lung sections ([5]; 3 mg/kg daily ip, Day 8, compared to vehicle treated animals): statistically significant reduction
Number of nuclei/mm^2 in lung sections ([5]; 3 mg/kg daily sc, Day 8, compared to vehicle treated animals): statistically significant reduction
Level of nuclei/mm^2 in infected PPS treated animals relative to uninfected animals ([5]; 3 mg/kg daily, Day 8): comparable to uninfected animals
Weight loss ([5]; 3 mg/kg daily, ip or sc, compared to infected animals treated with vehicle): reduced weight loss
Cellular infiltration in representative lung sections ([5]; 3 mg/kg ip or sc, Day 8, compared to vehicle treated animals): reduced cellular infiltration
Fibrotic response (collagen, Masson's Trichrome stain) ([5]; 3 mg/kg sc from Day 0 or Day 2 post-infection, Day 21, compared to vehicle): fibrotic response was reduced
Oxygen saturation levels ([5]; 3 mg/kg sc from Day 0 or Day 2 post-infection, measured Day 6 and Day 8, compared to vehicle treated infected animals): improved oxygen saturation levels
Effect on blood coagulation [6]: no lasting effect on blood coagulation
